Reference: patent US9290777B2, “Putative cytokinin receptor and methods for use thereof” (NATIONAL UNIVERSITY OF SINGAPORE, priority 2007, dated 2016)

Tested on: ARR6
Experiment: qRT-PCR of cytokinin responsive gene after BA pulse, fold change vs untreated wild type
Assay type: cell-based, Arabidopsis thaliana

c1ccc(CNc2ncnc3nc[nH]c23)cc1 [benzyladenine]
ARR6 fold change (BA 0.01 μM, 5 min, AS1, ↑ up): 4.12↑ | ARR6 fold change (BA 0.01 μM, 5 min, AS8, ↑ up): 7.1↑ | ARR6 fold change (BA 0.01 μM, 5 min, AS21, ↑ up): 9.2↑ | ARR6 fold change (BA 0.01 μM, 5 min, OE1, ↓ down): 5.51↓ | ARR6 fold change (BA 0.01 μM, 5 min, OE12, ↓ down): 6.87↓ | ARR6 fold change (BA 0.01 μM, 5 min, OE18, ↓ down): 8.56↓ | ARR6 fold change (BA 0.01 μM, 5 min, Wild type, ↑ up): 4.13↑ | ARR6 fold change (BA 0.01 μM, 15 min, AS1, ↑ up): 4.57↑ | ARR6 fold change (BA 0.01 μM, 15 min, AS8, ↑ up): 7.41↑ | ARR6 fold change (BA 0.01 μM, 15 min, AS21, ↑ up): 9.58↑ | ARR6 fold change (BA 0.01 μM, 15 min, OE1, ↓ down): 5.33↓ | ARR6 fold change (BA 0.01 μM, 15 min, OE12, ↓ down): 6.56↓ | ARR6 fold change (BA 0.01 μM, 15 min, OE18, ↓ down): 8.32↓ | ARR6 fold change (BA 0.01 μM, 15 min, Wild type, ↑ up): 4.67↑ | ARR6 fold change (BA 0.01 μM, 30 min, AS1, ↑ up): 5.98↑ | ARR6 fold change (BA 0.01 μM, 30 min, AS8, ↑ up): 7.86↑ | ARR6 fold change (BA 0.01 μM, 30 min, AS21, ↑ up): 9.79↑ | ARR6 fold change (BA 0.01 μM, 30 min, OE1, ↓ down): 5.11↓ | ARR6 fold change (BA 0.01 μM, 30 min, OE12, ↓ down): 6.13↓ | ARR6 fold change (BA 0.01 μM, 30 min, OE18, ↓ down): 8.13↓ | ARR6 fold change (BA 0.01 μM, 30 min, Wild type, ↑ up): 4.98↑ | ARR6 fold change (BA 0.01 μM, 1 h, AS1, ↑ up): 6.2↑ | ARR6 fold change (BA 0.01 μM, 1 h, AS8, ↑ up): 7.98↑ | ARR6 fold change (BA 0.01 μM, 1 h, AS21, ↑ up): 10.15↑ | ARR6 fold change (BA 0.01 μM, 1 h, OE1, ↓ down): 4.91↓ | ARR6 fold change (BA 0.01 μM, 1 h, OE12, ↓ down): 5.06↓ | ARR6 fold change (BA 0.01 μM, 1 h, OE18, ↓ down): 7.98↓ | ARR6 fold change (BA 0.01 μM, 1 h, Wild type, ↑ up): 5.15↑ | ARR6 fold change (BA 0.1 μM, 5 min, AS1, ↑ up): 6.14↑ | ARR6 fold change (BA 0.1 μM, 5 min, AS8, ↑ up): 8.12↑ | ARR6 fold change (BA 0.1 μM, 5 min, AS21, ↑ up): 10.31↑ | ARR6 fold change (BA 0.1 μM, 5 min, OE1, ↓ down): 5.1↓ | ARR6 fold change (BA 0.1 μM, 5 min, OE12, ↓ down): 5.91↓ | ARR6 fold change (BA 0.1 μM, 5 min, OE18, ↓ down): 7.89↓ | ARR6 fold change (BA 0.1 μM, 5 min, Wild type, ↑ up): 5.36↑ | ARR6 fold change (BA 0.1 μM, 15 min, AS1, ↑ up): 6.39↑ | ARR6 fold change (BA 0.1 μM, 15 min, AS8, ↑ up): 8.32↑ | ARR6 fold change (BA 0.1 μM, 15 min, AS21, ↑ up): 10.46↑ | ARR6 fold change (BA 0.1 μM, 15 min, OE1, ↓ down): 5.04↓ | ARR6 fold change (BA 0.1 μM, 15 min, OE12, ↓ down): 5.71↓ | ARR6 fold change (BA 0.1 μM, 15 min, OE18, ↓ down): 5.72↓ | ARR6 fold change (BA 0.1 μM, 15 min, Wild type, ↑ up): 5.58↑ | ARR6 fold change (BA 0.1 μM, 30 min, AS1, ↑ up): 6.69↑ | ARR6 fold change (BA 0.1 μM, 30 min, AS8, ↑ up): 8.57↑ | ARR6 fold change (BA 0.1 μM, 30 min, AS21, ↑ up): 10.68↑ | ARR6 fold change (BA 0.1 μM, 30 min, OE1, ↓ down): 4.9↓ | ARR6 fold change (BA 0.1 μM, 30 min, OE12, ↓ down): 5.59↓ | ARR6 fold change (BA 0.1 μM, 30 min, OE18, ↓ down): 5.36↓ | ARR6 fold change (BA 0.1 μM, 30 min, Wild type, ↑ up): 5.89↑ | ARR6 fold change (BA 0.1 μM, 1 h, AS1, ↑ up): 6.98↑ | ARR6 fold change (BA 0.1 μM, 1 h, AS8, ↑ up): 8.99↑ | ARR6 fold change (BA 0.1 μM, 1 h, AS21, ↑ up): 10.97↑ | ARR6 fold change (BA 0.1 μM, 1 h, OE1, ↓ down): 4.67↓ | ARR6 fold change (BA 0.1 μM, 1 h, OE12, ↓ down): 4.61↓ | ARR6 fold change (BA 0.1 μM, 1 h, OE18, ↓ down): 5.01↓ | ARR6 fold change (BA 0.1 μM, 1 h, Wild type, ↑ up): 5.99↑ | ARR6 fold change (BA 1.0 μM, 5 min, AS1, ↑ up): 7.43↑ | ARR6 fold change (BA 1.0 μM, 5 min, AS8, ↑ up): 9.01↑ | ARR6 fold change (BA 1.0 μM, 5 min, AS21, ↑ up): 10.99↑ | ARR6 fold change (BA 1.0 μM, 5 min, OE1, ↓ down): 4.96↓ | ARR6 fold change (BA 1.0 μM, 5 min, OE12, ↓ down): 5.19↓ | ARR6 fold change (BA 1.0 μM, 5 min, OE18, ↓ down): 4.36↓ | ARR6 fold change (BA 1.0 μM, 5 min, Wild type, ↑ up): 6.1↑ | ARR6 fold change (BA 1.0 μM, 15 min, AS1, ↑ up): 7.68↑ | ARR6 fold change (BA 1.0 μM, 15 min, AS8, ↑ up): 9.43↑ | ARR6 fold change (BA 1.0 μM, 15 min, AS21, ↑ up): 11.12↑ | ARR6 fold change (BA 1.0 μM, 15 min, OE1, ↓ down): 4.71↓ | ARR6 fold change (BA 1.0 μM, 15 min, OE12, ↓ down): 5.01↓ | ARR6 fold change (BA 1.0 μM, 15 min, OE18, ↓ down): 4.21↓ | ARR6 fold change (BA 1.0 μM, 15 min, Wild type, ↑ up): 6.31↑ | ARR6 fold change (BA 1.0 μM, 30 min, AS1, ↑ up): 7.73↑ | ARR6 fold change (BA 1.0 μM, 30 min, AS8, ↑ up): 9.69↑ | ARR6 fold change (BA 1.0 μM, 30 min, AS21, ↑ up): 11.35↑ | ARR6 fold change (BA 1.0 μM, 30 min, OE1, ↓ down): 4.49↓ | ARR6 fold change (BA 1.0 μM, 30 min, OE12, ↓ down): 4.89↓ | ARR6 fold change (BA 1.0 μM, 30 min, OE18, ↓ down): 4.01↓ | ARR6 fold change (BA 1.0 μM, 30 min, Wild type, ↑ up): 6.59↑ | ARR6 fold change (BA 1.0 μM, 1 h, AS1, ↑ up): 8.01↑ | ARR6 fold change (BA 1.0 μM, 1 h, AS8, ↑ up): 9.93↑ | ARR6 fold change (BA 1.0 μM, 1 h, AS21, ↑ up): 11.76↑ | ARR6 fold change (BA 1.0 μM, 1 h, OE1, ↓ down): 3.21↓ | ARR6 fold change (BA 1.0 μM, 1 h, OE12, ↓ down): 3.56↓ | ARR6 fold change (BA 1.0 μM, 1 h, OE18, ↓ down): 3.01↓ | ARR6 fold change (BA 1.0 μM, 1 h, Wild type, ↑ up): 6.87↑ | ARR6 fold change (BA 5.0 μM, 5 min, AS1, ↑ up): 7.98↑ | ARR6 fold change (BA 5.0 μM, 5 min, AS8, ↑ up): 9.98↑ | ARR6 fold change (BA 5.0 μM, 5 min, AS21, ↑ up): 11.43↑ | ARR6 fold change (BA 5.0 μM, 5 min, OE1, ↓ down): 4.19↓ | ARR6 fold change (BA 5.0 μM, 5 min, OE12, ↓ down): 4.67↓ | ARR6 fold change (BA 5.0 μM, 5 min, OE18, ↓ down): 3.45↓ | ARR6 fold change (BA 5.0 μM, 5 min, Wild type, ↑ up): 7.52↑ | ARR6 fold change (BA 5.0 μM, 15 min, AS1, ↑ up): 8.01↑ | ARR6 fold change (BA 5.0 μM, 15 min, AS8, ↑ up): 10.07↑ | ARR6 fold change (BA 5.0 μM, 15 min, AS21, ↑ up): 11.56↑ | ARR6 fold change (BA 5.0 μM, 15 min, OE1, ↓ down): 4.01↓ | ARR6 fold change (BA 5.0 μM, 15 min, OE12, ↓ down): 4.62↓ | ARR6 fold change (BA 5.0 μM, 15 min, OE18, ↓ down): 3.18↓ | ARR6 fold change (BA 5.0 μM, 15 min, Wild type, ↑ up): 7.69↑ | ARR6 fold change (BA 5.0 μM, 30 min, AS1, ↑ up): 8.23↑ | ARR6 fold change (BA 5.0 μM, 30 min, Wild type, ↑ up): 7.89↑
